Measurements reported in US12077503B2, “Substituted cyclic amides and their use as herbicides” (FMC CORPORATION, priority 2015, dated 2024).

How the values were obtained:
Assay type in all cases: in vivo
[1] = tested on: giant foxtail (Setaria faberii); test: Test A postemergence; conditions: postemergence
Procedure, shortened: (§1)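 Each rating is a visual injury score from 0 to 100 given about 10 d after treatment, judged against untreated controls kept alongside in the greenhouse. In loam soil–sand blend, seeds got a preemergence directed soil spray, while postemergence plants were 2 to 10 cm tall at spraying.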

[2] = tested on: pigweed (Amaranthus retroflexus); test: Test A postemergence; conditions: postemergence
Procedure, shortened: as §1

[3] = tested on: barnyardgrass (Echinochloa crus-galli); test: Test A postemergence; conditions: postemergence
Procedure, shortened: as §1

[4] = tested on: ragweed (common ragweed, Ambrosia elatior); test: Test A postemergence; conditions: postemergence
Procedure, shortened: as §1

[5] = tested on: ryegrass, Italian (Italian ryegrass, Lolium multiflorum); test: Test A postemergence; conditions: postemergence
Procedure, shortened: as §1

Kochia (Kochia scoparia) [6] = test: Test A postemergence; conditions: postemergence
Procedure, shortened: as §1

[7] = tested on: blackgrass (Alopecurus myosuroides); test: Test A postemergence; conditions: postemergence
Procedure, shortened: as §1

[8] = tested on: Galium (catchweed bedstraw, Galium aparine); test: Test A postemergence; conditions: postemergence
Procedure, shortened: as §1

corn (Zea mays) = test: Test A postemergence; conditions: postemergence
Procedure, shortened: as §1

[9] = tested on: wheat (Triticum aestivum); test: Test A postemergence; conditions: postemergence
Procedure, shortened: as §1

[10] = tested on: giant foxtail (Setaria faberii); test: Test A preemergence; conditions: for Plant response rating, Foxtail, Giant: preemergence
Procedure, shortened: as §1

[11] = tested on: pigweed (Amaranthus retroflexus); test: Test A preemergence; conditions: for Plant response rating, Pigweed: preemergence
[12] = tested on: barnyardgrass (Echinochloa crus-galli); test: Test A preemergence; conditions: for Plant response rating, Barnyardgrass: preemergence
Procedure, shortened: as §1

[13] = tested on: ragweed (common ragweed, Ambrosia elatior); test: Test A preemergence; conditions: preemergence
Procedure, shortened: as §1

[14] = tested on: ryegrass, Italian (Italian ryegrass, Lolium multiflorum); test: Test A preemergence; conditions: for Plant response rating, Ryegrass, Italian: preemergence
Procedure, shortened: as §1

Kochia (Kochia scoparia) [15] = test: Test A preemergence; conditions: for Plant response rating, Kochia: preemergence
Procedure, shortened: as §1

[16] = tested on: barnyardgrass (Echinochloa crus-galli); test: Test B flooded paddy test; conditions: Flood, 0 to 100 scale where 0 is no effect and 100 is complete control, 13 to 15 d
Procedure, shortened: (§2)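 Rating scale 0–100 (visual, vs untreated controls) after a 13–15 d greenhouse period; application to the flood layer, 3 cm above soil and maintained; plants at 2-leaf stage when treated.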

rice (Oryra sativa) = test: Test B flooded paddy test; conditions: Flood, 0 to 100 scale where 0 is no effect and 100 is complete control, 13 to 15 d
Procedure, shortened: as §2

[17] = tested on: sedge, umbrella (small-flower umbrella sedge, Cyperus difformis); test: Test B flooded paddy test; conditions: Flood, 0 to 100 scale where 0 is no effect and 100 is complete control, 13 to 15 d
Procedure, shortened: as §2

[18] = tested on: ducksalad (Heteranthera limosa); test: Test B flooded paddy test; conditions: Flood, 0 to 100 scale where 0 is no effect and 100 is complete control, 13 to 15 d
Procedure, shortened: as §2

[19] = tested on: ragweed (common ragweed, Ambrosia elatior); test: Test C preemergence; conditions: for Plant response rating, Ragweed: scale 0 to 100, 0 no effect, 100 complete control
Procedure, shortened: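 After treatment with surfactant-containing formulations, either preemergence to seeds in loam-sand soil or postemergence to potted seedlings at 2–18 cm, plants were kept 13–15 d in a greenhouse. Observers then compared them with controls and assigned ratings, 0 signifying no effect and 100 complete control.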

[20] = 125 g ai/ha, visual injury after approximately 10 d, 0 to 100 scale (0 no effect, 100 complete control)
[21] = 500 g ai/ha, visual injury, 0 to 100 scale (0 no effect, 100 complete control), approx. 10 d
[22] = 125 g ai/ha, visual rating after approx. 10 d, 0 to 100 scale where 0 is no effect and 100 is complete control
[23] = 500 g ai/ha, 0 to 100 scale, 0 = no effect, 100 = complete control
[24] = 125 g ai/ha, visual injury rating on 0 to 100 scale (0 no effect, 100 complete control), approx. 10 d
[25] = 500 g ai/ha, 0 to 100 scale, 0 no effect, 100 complete control
[26] = 125 g ai/ha, 0 to 100 scale (0 no effect, 100 complete control)
[27] = Preemergence, 500 g ai/ha, visual injury approx. 10 d

## O=C1NCC(c2cccc(OC(F)(F)C(F)F)c2)C1C(=O)Nc1ccc(F)c(F)c1F (racemic) [Compound 698]
[1]; [20]
  Plant response rating, Foxtail, Giant: 80
[1]; [21]
  Plant response rating, Foxtail, Giant: 80
[2]; [20]
  Plant response rating, Pigweed: 40
[2]; [21]
  Plant response rating, Pigweed: 60
[3]; [20]
  Plant response rating, Barnyardgrass: 70
[3]; [21]
  Plant response rating, Barnyardgrass: 80
[4]; [20]
  Plant response rating, Ragweed: 20
[4]; [21]
  Plant response rating, Ragweed: 40
[5]; [20]
  Plant response rating, Ryegrass, Italian: 30
[5]; [21]
  Plant response rating, Ryegrass, Italian: 30
Kochia (Kochia scoparia) [6]; [20]
  Plant response rating, Kochia: 50
Kochia (Kochia scoparia) [6]; [21]
  Plant response rating, Kochia: 60
[7]; [20]
  Plant response rating, Blackgrass: 30
[7]; [21]
  Plant response rating, Blackgrass: 40
[8]; [20]
  Plant response rating, Galium: 50
[8]; [21]
  Plant response rating, Galium: 50
Corn (Zea mays); [20]
  Plant response rating, Corn: 80
Corn (Zea mays); [21]
  Plant response rating, Corn: 80
[9]; [20]
  Plant response rating, Wheat: 30
[9]; [21]
  Plant response rating, Wheat: 40
[10]; [22]
  Plant response rating, Foxtail, Giant: 90
[10]; [23]
  Plant response rating, Foxtail, Giant: 90
[11]; [22]
  Plant response rating, Pigweed: 50
[11]; [23]
  Plant response rating, Pigweed: 50
[12]; [22]
  Plant response rating, Barnyardgrass: 80
[12]; [23]
  Plant response rating, Barnyardgrass: 90
[13]; [22]
  Plant response rating, Ragweed: 0
[13]; [23]
  Plant response rating, Ragweed: 50
[14]; [22]
  Plant response rating, Ryegrass, Italian: 30
[14]; [23]
  Plant response rating, Ryegrass, Italian: 60
Kochia (Kochia scoparia) [15]; [22]
  Plant response rating, Kochia: 50
Kochia (Kochia scoparia) [15]; [23]
  Plant response rating, Kochia: 40
[16]; 500 g ai/ha
  Plant response rating, Barnyardgrass: 50
Rice (Oryra sativa); 500 g ai/ha
  Plant response rating, Rice: 0
[17]; 500 g ai/ha
  Plant response rating, Sedge, Umbrella: 0
[18]; 500 g ai/ha
  Plant response rating, Ducksalad: 90
[19]; 31 g ai/ha, 0 is no effect, 100 is complete control
  Plant response rating (scale of 0 to 100), Ragweed: 70
[19]; 62 g ai/ha
  Plant response rating, Ragweed: 40
[19]; 125 g ai/ha
  Plant response rating, Ragweed: 40
[19]; 250 g ai/ha
  Plant response rating, Ragweed: 55

## CN1CC(c2cccc(OC(F)(F)C(F)F)c2)C(C(=O)Nc2ccc(F)c(F)c2F)C1=O (stereo not shown) [Compound 429]
[1]; [24]
  Foxtail, Giant plant response rating: 90
[1]; [25]
  Plant response rating, Foxtail, Giant: 90
[2]; [24]
  Pigweed plant response rating: 70
[2]; [25]
  Plant response rating, Pigweed: 80
[3]; [24]
  Barnyardgrass plant response rating: 90
[3]; [25]
  Plant response rating, Barnyardgrass: 90
[4]; [24]
  Ragweed plant response rating: 30
[4]; [25]
  Plant response rating, Ragweed: 50
[5]; [24]
  Ryegrass, Italian plant response rating: 60
[5]; [25]
  Plant response rating, Ryegrass, Italian: 80
Kochia (Kochia scoparia) [6]; [24]
  Kochia plant response rating: 60
Kochia (Kochia scoparia) [6]; [25]
  Plant response rating, Kochia: 70
[7]; [24]
  Blackgrass plant response rating: 50
[7]; [25]
  Plant response rating, Blackgrass: 70
[8]; [24]
  Galium plant response rating: 70
[8]; [25]
  Plant response rating, Galium: 70
Corn (Zea mays); [24]
  Corn plant response rating: 70
Corn (Zea mays); [25]
  Plant response rating, Corn: 80
[9]; [24]
  Wheat plant response rating: 50
[9]; [25]
  Plant response rating, Wheat: 60
[10]; [26]
  Plant response rating, Foxtail, Giant: 90
[10]; [27]
  Foxtail, Giant plant response rating (0 to 100 scale, 0 is no effect, 100 is complete control): 100
[11]; [26]
  Plant response rating, Pigweed: 80
[11]; [27]
  Pigweed plant response rating (0 to 100 scale, 0 is no effect, 100 is complete control): 80
[12]; [26]
  Plant response rating, Barnyardgrass: 90
[12]; [27]
  Barnyardgrass plant response rating (0 to 100 scale, 0 is no effect, 100 is complete control): 90
[13]; [26]
  Plant response rating, Ragweed: 50
[14]; [26]
  Plant response rating, Ryegrass, Italian: 70
[14]; [27]
  Ryegrass, Italian plant response rating (0 to 100 scale, 0 is no effect, 100 is complete control): 80
Kochia (Kochia scoparia) [15]; [26]
  Plant response rating, Kochia: 70
Kochia (Kochia scoparia) [15]; [27]
  Kochia plant response rating (0 to 100 scale, 0 is no effect, 100 is complete control): 80
[16]; 250 g ai/ha
  Plant response rating, Barnyardgrass: 65
Rice (Oryra sativa); 250 g ai/ha
  Plant response rating, Rice: 15
[17]; 250 g ai/ha
  Plant response rating, Sedge, Umbrella: 0
[18]; 250 g ai/ha
  Plant response rating, Ducksalad: 100
[19]; 31 g ai/ha
  Plant response rating, Ragweed: 0
[19]; 62 g ai/ha
  Plant response rating, Ragweed: 40
[19]; 125 g ai/ha
  Plant response rating, Ragweed: 75
[19]; 250 g ai/ha
  Plant response rating, Ragweed: 75
